Assay results published in patent publication US20160046603A1, “Crystalline Forms of D-Glucitol, 1-Deoxy-1-(Methylamino)-, 1-(6-Amino-3,5-Difluoropyridine-2-Yl)-8-Chloro-6-Fluoro-1,4-Dihydro-7-(3-Hydroxyazetidin-1-Yl)-4-Oxo-3-Quinolinecarboxylate” (MELINTA THERAPEUTICS, INC., priority 2013, published 2016).

Key:
[1] = over the parent acid; cited from earlier work
[2] = test system: Gram-negative and Gram-negative bacteria; details: cited from earlier work
topoisomerase and gyrase = details: cited from earlier work
[3] = Phase 2 trials, nearly 1,400 patients; cited from earlier work
[4] = Intrinsic dissolution rate; type: physicochemical
Experimental: Approximately 100 mg of the pure test compound was compressed under high pressure (7 ton), using a constructed die. No additives were added, thus avoiding any external interference in the intrinsic dissolution profile. The resulting non-disintegrating disc was transferred to the dissolution apparatus, Distek model 5100 premiere dissolution system, containing 900 mL of pH 5 buffer with 15 mM hexadecyl trimethyl ammonium bromide (HTAB), pre-heated to 37° C. The stirring speed of the paddle was set to 50 rpm. The solution was sampled at set time points with the resulting aliquots analyzed directly by HPLC, with reference to standard solutions. 5 standards, with concentrations ranging from 0.03 to 0.005 mg/mL in deionized water, and the sample solutions were injected, together with blank injections of the deionized water. The concentration was calculated using the peak areas determined by integration of the peak found at the same retention time as the principal peak in the standard injection.

[5] = Solid-state stability / polymorph conversion followed by XRPD; type: physicochemical; details: for thermodynamic stability: Form 1A versus Form 1B
Experimental: X-Ray Powder Diffraction patterns were collected on a Bruker AXS C2 GADDS diffractometer using Cu Kα radiation (40 kV, 40 mA), automated XYZ stage, laser video microscope for auto-sample positioning and a HiStar 2-dimensional area detector. X-ray optics consists of a single Gael multilayer mirror coupled with a pinhole collimator of 0.3 mm. A weekly performance check was carried out using a certified standard NIST 1976 Corundum (flat plate). Similar instruments can be used to obtain XRPD patterns.
The beam divergence, i.e. the effective size of the X-ray beam on the sample, was approximately 4 mm. A θ-θ continuous scan mode was employed with a sample—detector distance of 20 cm which gives an effective 2θ range of 3.2°-29.7°. The samples were exposed to the X-ray beam for approximately 120 seconds. The software used for data collection was GADDS for WNT 4.1.16 and the data were analyzed and presented using Diffrac Plus EVA v11.0.0.2 or v13.0.0.2.
Samples run under ambient conditions were prepared as flat plate specimens using powder as received without grinding. Approximately 1-2 mg of the sample was lightly pressed on a glass slide to obtain a flat surface.

[6] = Modulated differential scanning calorimetry (mDSC); type: physicochemical; details: mDSC thermogram, FIG. 4
Experimental: DSC data were collected on a TA Instruments Q2000 equipped with a 50 position autosampler. Similar instruments can be used to collect DSC data. The calibration for thermal capacity was carried out using sapphire and the calibration for energy and temperature was carried out using certified indium. Modulated temperature DSC was carried out using an underlying heating rate of 2° C./min and temperature modulation parameters of ±1.2° C. (amplitude) every 60 seconds (period). Typically 0.5-3 mg of each sample, in a pin-holed aluminum pan, was heated at […] from 25° C. to 220° C. A purge of dry nitrogen at 50 ml/min was maintained over the sample. The instrument control software was Advantage for Q Series v2.8.0.392 and Thermal Advantage v4.8.3 and the data were analyzed using Universal Analysis v4.4A.

CNC[C@H](O)[C@@H](O)[C@H](O)[C@H](O)CO.Nc1nc(-n2cc(C(=O)O)c(=O)c3cc(F)c(N4CC(O)C4)c(Cl)c32)c(F)cc1F [D-glucitol, 1-deoxy-1-(methylamino)-, 1-(6-amino-3,5-difluoropyridin-2-yl)-8-chloro-6-fluoro-1,4-dihydro-7-(3-hydroxyazetidin-1-yl)-4-oxo-3-quinolinecarboyxlate]
solubility, dissolution and bioavailability [1]: improved solubility, dissolution and bioavailability

Nc1nc(-n2cc(C(=O)O)c(=O)c3cc(F)c(N4CC(O)C4)c(Cl)c32)c(F)cc1F [Delafloxacin, 1-deoxy-1-(methylamino)-, 1-(6-amino-3,5-difluoropyridin-2-yl)-8-chloro-6-fluoro-1,4-dihydro-7-(3-hydroxyazetidin-1-yl)-4-oxo-3-quinolinecarboyxlate]
potency against bacteria [2]: highly potent
inhibition of topoisomerase and gyrase enzyme targets (topoisomerase and gyrase): balanced inhibition
tolerance and safety [3]: good tolerance and safety

CNC[C@H](O)[C@@H](O)[C@H](O)[C@H](O)CO.Nc1nc(-n2cc(C(=O)O)c(=O)c3cc(F)c(N4CC(O)C4)c(Cl)c32)c(F)cc1F [Form 1A, D-glucitol, 1-deoxy-1-(methylamino)-, 1-(6-amino-3,5-difluoropyridin-2-yl)-8-chloro-6-fluoro-1,4-dihydro-7-(3-hydroxyazetidin-1-yl)-4-oxo-3-quinolinecarboyxlate]
dissolution characteristics ([4]; Form 1A versus Form 1B): improved dissolution characteristics
thermodynamic stability [5]: thermodynamic stability over Form 1B

CNC[C@H](O)[C@@H](O)[C@H](O)[C@H](O)CO.Nc1nc(-n2cc(C(=O)O)c(=O)c3cc(F)c(N4CC(O)C4)c(Cl)c32)c(F)cc1F [Form 1B, D-glucitol, 1-deoxy-1-(methylamino)-, 1-(6-amino-3,5-difluoropyridin-2-yl)-8-chloro-6-fluoro-1,4-dihydro-7-(3-hydroxyazetidin-1-yl)-4-oxo-3-quinolinecarboyxlate]
initial dissolution rate (intrinsic dissolution profile) ([4]; compressed disc, 900 mL pH 5 buffer with 15 mM HTAB, 37° C., 50 rpm, compared with the other phase): significantly faster initial dissolution rates
dissociation to the free acid post IDR ([4]; confirmed by 1H NMR analyses post IDR): almost complete dissociation to the free acid
non-reversible transition of Form 1B to Form 1A [6]: about 94 °C
thermodynamic stability [5]: metastable
conversion of polymorphic form ([5]; exposure to humidity and heat, followed by XRPD b-axis reflections): converts to crystalline anhydrous Form 1A delafloxacin meglumine on exposure to humidity and heat
